This assay deals with hNR2B (Homo sapiens, UniProt Q05586+Q13224). As to the kind of experiment: Electrophysiology NMDA receptor experiments: two electrode voltage-clamp in Xenopus laevis oocytes expressing GluN1/GluN2 subunits. To be noted: oocytes voltage clamped at −40 mV, 50 μM glutamate, 30 μM glycine. It is filed as cell-based. The procedure: Electrophysiology NMDA Receptor Experiments.
Stage V and VI oocytes were surgically removed from the ovaries of large, well-fed and healthy Xenopus laevis anesthetized with 3-amino-benzoic acid ethyl ester (3 gm/l). Clusters of isolated oocytes were incubated with 292 U/ml Worthington (Freehold, N.J.) type IV collagenase or 1.3 mg/ml collagenase (Life Technologies, Gaithersburg, Md.; 17018-029) for 2 hr in Ca^2+-free solution comprised of (in mM) 115 NaCl, 2.5 KCl, and 10 HEPES, pH 7.5, with slow agitation to remove the follicular cell layer. Oocytes were then washed in the same solution supplemented with 1.8 mM CaCl2 and maintained in Barth's solution comprised of (in mM): 88 NaCl, 1 KCl, 2.4 NaHCO3, 10 HEPES, 0.82 MgSO4, 0.33 Ca(NO3)2, and 0.91 CaCl2 and supplemented with 100 μg/ml gentamycin, 10 μg/ml streptomycin, and 10 μg/ml penicillin. Oocytes were manually defolliculated and injected within 24 hrs of isolation with 3-5 ng of human GluN1 subunit cRNA and 7-10 ng of human GluN2 cRNA subunit in a 50 nl volume, and incubated in Barth's solution at 18° C. for 2-7 d. Glass injection pipettes had tip sizes ranging from 10-20 microns, and were backfilled with mineral oil. cRNA was synthesized from linearized template cDNA for rat glutamate receptor subunits according to manufacturer specifications (Ambion).
Two electrode voltage-clamp recordings were made 2-7 days post-injection. Oocytes were placed in a dual-track plexiglass recording chamber with a single perfusion line that splits in a Y-configuration to perfuse two oocytes. Dual recordings were made at room temperature (23° C.) using two Warner OC725B two-electrode voltage clamp amplifiers, arranged as recommended by the manufacturer. Glass microelectrodes (1-10 Megaohms) were filled with 300 mM KCl (voltage electrode) or 3 M KCl (current electrode). The bath clamps communicated across silver chloride wires placed into each side of the recording chamber, both of which were assumed to be at a reference potential of 0 mV. Oocytes were perfused with a solution comprised of (in mM) 90 NaCl, 1 KCl, 10 HEPES, […] and 0.5 BaCl2; pH 7.4, adjusted by addition of NaOH. Oocytes were recorded under voltage clamp at −40 mV. Final concentrations for glutamate and glycine were 50 μM and 30 μM, respectively. Concentration-response curves for experimental compounds were obtained by applying in successive fashion maximal glutamate/glycine, followed by glutamate/glycine plus variable concentrations of experimental compounds. Dose response curves consisting of four to eight concentrations were obtained in this manner. The baseline leak current at −40 mV was measured before and after recording, and the full recording linearly corrected for any change in leak current. The level of inhibition by applied experimental compounds was expressed as a percent of the initial glutamate response, and averaged together across oocytes from multiple experiments. Results were pooled, and the average percent responses at antagonist concentrations were fit by the equation, Percent Response=(100−minimum)/(1+([conc]/IC50)^nH)+minimum where minimum is the residual percent response in saturating concentration of the experimental compounds, IC50 is the concentration of antagonist that causes half of the achievable inhibition, and nH is a slope factor describing steepness of the inhibition curve. […]
For NMDA receptor subtype selectivity experiments human GluN1/GluN2A, GluN1/GluN2C, and GluN1/GluN2D cRNAs were expressed in Xenopus laevis as described above. Here, 10 μM concentrations of the antagonist was perfused with 50 μM glutamate and 30 μM glycine onto the oocyte for two min and the remaining current in the presence of the antagonist was compared to the maximal current obtained with 50 μM glutamate and 30 μM glycine alone (defined as 100%). When IC50 determinations were made against other NMDA receptor subtypes the protocol as described above was followed. […]
(In general: In two-electrode clamp one electrode senses voltage and the other passes current.)

Like-named read-outs stand apart in the source and are kept apart here.

Sequence of hNR2B (Q13224 27-1484, other chains not shown): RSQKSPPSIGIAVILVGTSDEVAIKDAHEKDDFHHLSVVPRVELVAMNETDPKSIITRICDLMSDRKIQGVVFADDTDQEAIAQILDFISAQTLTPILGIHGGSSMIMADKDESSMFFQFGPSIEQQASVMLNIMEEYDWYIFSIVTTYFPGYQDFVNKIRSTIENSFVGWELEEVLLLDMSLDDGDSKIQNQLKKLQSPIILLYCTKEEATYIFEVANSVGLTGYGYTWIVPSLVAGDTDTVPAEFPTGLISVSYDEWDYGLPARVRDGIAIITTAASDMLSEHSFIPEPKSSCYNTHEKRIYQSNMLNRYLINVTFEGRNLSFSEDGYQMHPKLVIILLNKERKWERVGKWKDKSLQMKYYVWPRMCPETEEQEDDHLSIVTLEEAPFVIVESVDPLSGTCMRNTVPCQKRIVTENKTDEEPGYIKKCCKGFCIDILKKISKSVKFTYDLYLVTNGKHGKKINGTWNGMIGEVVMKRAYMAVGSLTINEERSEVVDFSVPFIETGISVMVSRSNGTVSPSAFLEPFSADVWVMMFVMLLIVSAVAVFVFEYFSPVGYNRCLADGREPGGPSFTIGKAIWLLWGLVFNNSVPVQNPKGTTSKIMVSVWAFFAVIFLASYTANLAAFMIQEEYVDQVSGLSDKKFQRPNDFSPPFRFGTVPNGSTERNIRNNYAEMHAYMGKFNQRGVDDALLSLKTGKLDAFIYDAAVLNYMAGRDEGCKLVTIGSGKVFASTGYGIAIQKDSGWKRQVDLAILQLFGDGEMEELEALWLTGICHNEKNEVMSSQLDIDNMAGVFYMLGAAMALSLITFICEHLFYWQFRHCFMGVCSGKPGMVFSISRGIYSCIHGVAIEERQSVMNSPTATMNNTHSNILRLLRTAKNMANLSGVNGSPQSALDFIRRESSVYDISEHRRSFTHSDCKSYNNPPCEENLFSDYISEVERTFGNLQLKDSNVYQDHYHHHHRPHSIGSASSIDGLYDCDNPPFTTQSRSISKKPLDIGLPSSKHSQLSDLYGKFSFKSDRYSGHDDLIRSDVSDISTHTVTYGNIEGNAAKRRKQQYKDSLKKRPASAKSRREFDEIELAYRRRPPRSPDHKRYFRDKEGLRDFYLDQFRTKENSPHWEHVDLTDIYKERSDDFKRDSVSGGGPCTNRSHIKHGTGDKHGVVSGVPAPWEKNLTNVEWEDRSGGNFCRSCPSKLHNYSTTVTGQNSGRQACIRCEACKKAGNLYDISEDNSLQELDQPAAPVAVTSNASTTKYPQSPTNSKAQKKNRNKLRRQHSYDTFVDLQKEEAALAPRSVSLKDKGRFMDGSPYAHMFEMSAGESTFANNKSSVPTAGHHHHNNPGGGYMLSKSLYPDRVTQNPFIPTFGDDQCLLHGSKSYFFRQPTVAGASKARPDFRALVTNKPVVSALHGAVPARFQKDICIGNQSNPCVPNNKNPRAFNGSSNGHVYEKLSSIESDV

`O=c1ccc2cc(CCc3cnc(Nc4ccc(OC(F)(F)F)cc4)nc3)ccc2[nH]1` [Example 108]: where the note is “read-out: Rating (hNR2B IC50)”, the IC50 was below 0.2 µM.
The same measure, in the same setting: to `O=c1ccc2cc(CCc3cnc(Nc4ccc(OC(F)F)cc4)nc3)ccc2[nH]1` [Example 109] belongs below 0.2 µM; to `O=c1ccc2cc(C3CC3c3cnc(Nc4ccc(OC(F)F)cc4)nc3)ccc2[nH]1` (stereo not shown) [Example 110], below 0.2 µM.
The same measure, in the same setting: for `FC(F)Oc1ccc(Nc2ncc(CCc3cccc4[nH]ncc34)cn2)cc1` [Example 111] the value was 1 to 10 µM.
On the same count and under the same terms, to `FC(F)Oc1ccc(Nc2ncc(CCc3ccc4[nH]ncc4c3)cn2)cc1` [Example 112] belongs 0.201 to 1 µM.
Consider `FC(F)Oc1ccc(Nc2ncc(CCc3ccc4cn[nH]c4c3)cn2)cc1` [Example 113], for which the IC50 (read-out: Rating (hNR2B IC50)) is above 10 µM.
Take `FC(F)Oc1ccc(Nc2ncc(CCCNc3ncccn3)cn2)cc1` [Example 114]: the half-maximal inhibitory concentration (IC50) (read-out: Rating (hNR2B IC50)) was above 10 µM.
The same measure, in the same setting: for `FC(F)Oc1ccc(Nc2ncc(CCCNc3ncnc4[nH]ncc34)cn2)cc1` [Example 115] the value was above 10 µM; for `FC(F)Oc1ccc(Nc2ncc(C3CC3c3cccc4[nH]ncc34)cn2)cc1` (stereo not shown) [Example 117], above 10 µM.
Same read-out and setting: for `CC(Cc1cnc(Nc2ccc(OC(F)F)cc2)nc1)c1ccc2[nH]c(=O)ccc2c1` (stereo not shown) [Example 122] the value was below 0.2 µM; for `N#Cc1n[nH]c2ccc(CCc3cnc(Nc4ccc(OC(F)F)cc4)nc3)cc12` [Example 124], above 10 µM; for `CCc1ccc(Nc2ncc(CCc3ccc4[nH]ncc4c3)cn2)cc1F` [Example 125], 1 to 10 µM.
`CCc1ccc(Nc2ncc(CCc3ccc4[nH]c(=O)ccc4c3)cn2)cc1F` [Example 126]: under “read-out: Rating (hNR2B IC50)”, the IC50 was below 0.2 µM.
Still for that read-out and setting: for `CCc1ccc(Nc2ncc(CCc3ccc4[nH]ncc4c3)cn2)cc1` [Example 127] the value was 0.201 to 1 µM; for `Fc1cc(Nc2ncc(CCc3ccc4[nH]ncc4c3)cn2)ccc1OC(F)F` [Example 128], below 0.2 µM.
Same read-out and setting: for `O=c1ccc2cc(CCc3cnc(Nc4ccc(OC(F)F)c(F)c4)nc3)ccc2[nH]1` [Example 129] the value was below 0.2 µM; for `CCc1ccc(Nc2ncc(CCc3ccc4[nH]c(=O)ccc4c3)cn2)cc1` [Example 131], below 0.2 µM; for `COc1ccc(Nc2ncc(CCc3ccc4[nH]c(=O)ccc4c3)cn2)cc1C` [Example 132], below 0.2 µM.
Still for that read-out and setting: to `FC1(F)Oc2ccc(Nc3ncc(CCc4ccc5[nH]ncc5c4)cn3)cc2O1` [Example 133] belongs 1 to 10 µM; to `CCc1ccc(Nc2ncc(CCc3ccc4[nH]ncc4c3)cn2)cc1Cl` [Example 134], 1 to 10 µM; to `CCc1ccc(Nc2ncc(CCc3ccc4[nH]c(=O)ccc4c3)cn2)cc1Cl` [Example 135], 1 to 10 µM.
Turning to `CC1(C)OC(=O)Nc2ccc(CCc3cnc(Nc4ccc(OC(F)F)cc4)nc3)cc21` [Example 138], the IC50 (read-out: Rating (hNR2B IC50)) is above 10 µM.
Still for that read-out and setting: for `O=C1Nc2ccc(CCc3cnc(Nc4ccc(OC(F)F)cc4)nc3)cc2CO1` [Example 139] the value was below 0.2 µM.
On the same count and under the same terms, for `CC1(C)OC(=O)Nc2ccc(CCc3cnc(Nc4ccc(OC(F)F)c(Cl)c4)nc3)cc21` [Example 140] the value was 0.201 to 1 µM.
As to `CCc1ccc(Nc2ncc(CCc3ccc4c(c3)C(C)(C)OC(=O)N4)cn2)cc1F` [Example 141], the IC50 (read-out: Rating (hNR2B IC50)) was in the range of 1 to 10 µM.
On the same count and under the same terms, to `Cc1ccc(Nc2ncc(CCc3ccc4c(c3)C(C)(C)OC(=O)N4)cn2)cc1F` [Example 142] belongs 1 to 10 µM; to `O=C1Nc2ccc(CCc3cnc(Nc4ccc(OC(F)F)c(Cl)c4)nc3)cc2CO1` [Example 143], below 0.2 µM; to `CCc1ccc(Nc2ncc(CCc3ccc4c(c3)COC(=O)N4)cn2)cc1F` [Example 144], below 0.2 µM.
On to `Cc1cc(Nc2ncc(CCc3ccc4c(c3)COC(=O)N4)cn2)ccc1OC(F)F` [Example 145], for which the IC50 (read-out: Rating (hNR2B IC50)) was below 0.2 µM.
For `O=C1Nc2ccc(CCc3cnc(Nc4ccc(OC(F)F)c(F)c4)nc3)cc2CO1` [Example 146], the IC50 (read-out: Rating (hNR2B IC50)) is below 0.2 µM.
On the same count and under the same terms, to `Cc1cc(Nc2ncc(CCc3ccc4c(c3)C(C)(C)OC(=O)N4)cn2)ccc1OC(F)F` [Example 147] belongs 1 to 10 µM; to `CC1(C)OC(=O)Nc2ccc(CCc3cnc(Nc4ccc(OC(F)F)c(F)c4)nc3)cc21` [Example 148], 1 to 10 µM.
For the compound `Cc1ccc(Nc2ncc(CCc3ccc4c(c3)COC(=O)N4)cn2)cc1F` [Example 149], the IC50 (read-out: Rating (hNR2B IC50)) is below 0.2 µM.
Take `Oc1ccc(CCc2cnc(Nc3ccc(OC(F)F)cc3)nc2)cc1` [Example 150]: the IC50 (read-out: Rating (hNR2B IC50)) was below 0.2 µM.
Same read-out and setting: to `CCc1ccc(Nc2ncc(CCc3cnc4[nH]ncc4c3)cn2)cc1F` [Example 151] belongs 0.201 to 1 µM.
On the same count and under the same terms, for `Fc1cc(Nc2ncc(CCc3cnc4[nH]ncc4c3)cn2)ccc1OC(F)F` [Example 152] the value was below 0.2 µM; for `Cc1cc(Nc2ncc(CCc3cnc4[nH]ncc4c3)cn2)ccc1OC(F)F` [Example 153], below 0.2 µM.
Same read-out and setting: for `FC(F)Oc1ccc(Nc2ncc(CCc3cnc4[nH]ncc4c3)cn2)cc1` [Example 154] the value was below 0.2 µM.
Take `O=c1ccc2cc(CCc3cnc(Nc4ccc(OC(F)F)cc4)nc3)cnc2[nH]1` [Example 155]: the IC50 (read-out: Rating (hNR2B IC50)) was below 0.2 µM.
Turning to `FC(F)Oc1ccc(Nc2ccc(CCc3ccc4[nH]ncc4c3)nn2)cc1` [Example 156, 6-(2-(1H-indazol-5-yl)ethyl)-N-(4-(difluoromethoxy)phenyl)pyridazin-3-amine], for the setting “read-out: hNR2B IC50”, the IC50 came out at 0.135 µM.

A word on the IC50: it is the concentration that gives 50% inhibition.
